Measured values published in patent publication US7083969B2, “Serratia marcescens strain” (Korea Research Institute of Bioscience and Biotechnology, priority 1997, dated 2006).

What was measured:
B lymphocytes = assay: Selective cytotoxicity: proportion of B lymphocytes after treatment; format: cell-based, mice; details: for Proliferation (%) B cell: proportion of the cells
Excerpt: (§1) Germ-free test animals, mice BDF1 and B6C3F1, obtained from Genetic Resources Center, Korean Research Institute of Bioscience and Biotechnology in the Korean Institute of Science and Technology, were used for the assay of the immunosuppressive activity of prodigiosin. […] At such concentrations as show no cytotoxic effects, prodigiosin cannot suppress the immune response of B lymphocytes. […] This selective immunosuppression for T lymphocytes is not ascribed to the selective cytotoxicity for T lymphocytes. The same immunosuppression results as in the ex vivo experiments were obtained in in vivo experiments. When T lymphocyte activity was measured by use of a graft versus host reaction and a T cell-dependent antibody producing reaction, the prodigiosin suppressed the immune response, but exerted no toxicity on animals. Therefore, the immunosuppressive activity of the prodigiosin is thought to be attributed to the selective suppression for T lymphocyte activity.
(§2) Whether the selective immunosuppression of prodigiosin for T cells is attributed to the selective cytotoxicity for T cells or not was assayed by measuring the proportion of the cells. On the third day after treatment of the immune cells with prodigiosin, the number of the cells was counted. Because T lymphocytes consist of CD4 T cell (helper T cell) and CD8 T cell (cytotoxic T cell), the proportion of T and B lymphocytes was calculated in this Example.

[1] = test system: Immune cells separated from the spleens; assay: Viability of spleen immune cells cultured in vitro (cytotoxicity); format: cell-based, mice; details: ex vivo experiments
Excerpt: as §1
(§3) Immune cells were separated from the spleens of the germ-free animals and cultured in vitro. The cultures were treated with the prodigiosin at various amounts from 3 nM to 30,000 nM and the viability of the cells were measured from the first day to the third day after the treatment. Based on the initial viability of the immune cells, the viabilities of the test groups were calculated. […] So, subsequent experiments for immunoactivity were carried out at not more than 100 nM in order to exclude the cytotoxicity and to measure only the immunosuppressive effect of the prodigiosin.

[2] = as above; format: cell-based, mice; details: mouse, immune cells separated from the spleen, cultured in vitro
Excerpt: as §1, §3

T lymphocytes = assay: Graft versus host reaction in vivo (lymphatic node weight); parameters: species or system BDF1 mice; details: for Wt. (mg) of Lymphatic node: sixth day after transplantation
Excerpt: as §1
A graft versus host reaction was utilized for the in vivo assay of prodigiosin's immunosuppression. The graft versus host reaction enables an assessment of the immune response of T lymphocytes. On the sixth day after transplantation of the T lymphocytes of BDF1 mice different in histocompatibility antigen, the lymphatic nodes were measured for weight, thereby assessing the immune response of T lymphocyte to the grafted heteroantigens. The prodigiosin was peritoneally injected at a dose of 30–100 mg per kg of body weight for five days while cyclophosphamide, as a positive control, was peritoneally injected at a dose of 100 mg/kg for five days. The body weights of the injected mice were measured to compare the toxicity of prodigiosin with that of cyclophosphamide. […] As for the body weight, it was not changed in the mice injected with prodigiosin at an effective concentration.

[3] = test system: CD4 T cell (helper T cell); assay: Selective cytotoxicity: proportion of CD4 T cells after treatment; format: cell-based, mice; details: proportion of the cells
Excerpt: as §1, §2

B and T lymphocytes [4] = assay: T-cell dependent antibody producing reaction in vitro (sheep red blood cells); format: cell-based, mice
Excerpt: as §1
The influence of prodigiosin on the functions of lymphocytes was measured using three reaction systems. First, the ability of B lymphocyte to proliferate in response to lipopolysaccharide stimulus was assessed. For this, on the third day after stimulation with lipopolysaccharide, the antibody production of the B lymphocyte was measured. When B lymphocytes are stimulated with lipopolysaccharide, they can produce antibodies without the aid of T lymphocyte. Second, a mixed lymphocyte reaction was induced in order to assess the effect on T-cell response. The reaction needs no aids from the B lymphocyte. On the third day after two types of heteroimmune cells, which are different from each other in histocompatibility antigen, were mixed to stimulate the activity of T lymphocytes, the T-cell response-was assessed. Third, the T-cell dependent antibody producing reaction was utilized to assess the effect of prodigiosin on the simultaneous immune response of both of the B and T lymphocytes. This reaction requires the functions of B and T lymphocytes, simultaneously. On the fifth day after immunization of the lymphocytes with the red blood cells of sheep, their antibody production ability was assessed.
In Table 3, the values are relative to the immune response of the lymphocytes untreated with prodigiosin.

B and T lymphocytes [5] = assay: Pokeweed mitogen-induced B and T lymphocyte proliferation (DNA synthesis); format: cell-based, mice; details: for Proliferation (%) B/T cells: three days
Excerpt: as §1
Three standard substances which induce lymphocytes to proliferate were employed to measure the effect of the prodigiosin on proliferation of lymphocytes. 5 μg/ml of lipopolysaccharide were used to induce B lymphocyte to proliferate, 5 μg/ml of Concanavalin A for T lymphocyte and 5 μg/ml of Pokeweed mitogen for B and T lymphocytes, both. Prodigiosin was added, together with the proliferation-inducing substance. Three days after the addition, the proliferation effect was monitored by measuring the amount of DNA synthesized. In order to exclude the cytotoxicity of prodigiosin, it was used at a concentration of not more than 100 nM. In Table 2, the proliferation percentages mean the proliferated amounts of prodigiosin-treated lymphocytes relative to that of an non-treated group. As shown, the suppression percentage effected by prodigiosin in amounts of 30–100 nM reaches up to 96–98% for the T lymphocyte induced by concanavalin A while the proliferation of B lymphocyte induced by lipopolysaccharide and the proliferation of B/T lymphocytes induced by pokeweed mitogen are suppressed to the extent of 13–19% and 45–83%, respectively.

[6] = 3 nM, third day after treatment

## CCCCCC1=C/C(=C/c2[nH]c(-c3ccc[nH]3)cc2OC)N=C1C [Prodigiosin, prodigiosin]
B lymphocytes; [6]
  Proliferation (%) B cell: 47%
B lymphocytes; 10 nM, third day
  Proliferation (%) B cell: 49%
B lymphocytes; 30 nM, third day
  Proliferation (%) B cell: 50%
B lymphocytes; 100 nM, third day
  Proliferation (%) B cell: 52%
B lymphocytes; B, CD4 T and CD8 T cell proportions, 3-100 nM, third day
  selective cytotoxicity for B, CD4 T and CD8 T lymphocytes: no selective cytotoxicity
[1]
  concentration with no cytotoxic effects: less than 100 nM
[2]; 3 nM, 1st day after treatment, based on initial viability
  viability at 1 day, 0.003 µM: 96%
[2]; 3 nM, 2nd day after treatment, based on initial viability
  viability at 2 day, 0.003 µM: 86%
[2]; 3 nM, 3rd day after treatment, based on initial viability
  viability at 3 day, 0.003 µM: 79%
[2]; 10 nM, 1st day
  viability at 1 day, 0.01 µM: 89%
[2]; 10 nM, 2nd day
  viability at 2 day, 0.01 µM: 82%
[2]; 10 nM, 3rd day
  viability at 3 day, 0.01 µM: 79%
[2]; 30 nM, 1st day
  viability at 1 day, 0.03 µM: 89%
[2]; 30 nM, 2nd day
  viability at 2 day, 0.03 µM: 70%
[2]; 30 nM, 3rd day
  viability at 3 day, 0.03 µM: 81%
[2]; 100 nM, 1st day
  viability at 1 day, 0.1 µM: 82%
[2]; 100 nM, 2nd day
  viability at 2 day, 0.1 µM: 70%
[2]; 100 nM, 3rd day
  viability at 3 day, 0.1 µM: 70%
[2]; 300 nM, 1st day
  viability at 1 day, 0.3 µM: 68%
[2]; 300 nM, 2nd day
  viability at 2 day, 0.3 µM: 14%
[2]; 300 nM, 3rd day
  viability at 3 day, 0.3 µM: 18%
[2]; 1,000 nM, 1st day
  viability at 1 day, 1000 nM: 74%
[2]; 1,000 nM, 2nd day
  viability at 2 day, 1000 nM: 14%
[2]; 1,000 nM, 3rd day
  viability at 3 day, 1000 nM: 14%
[2]; 3,000 nM, 1st day
  viability at 1 day, 3000 nM: 61%
[2]; 3,000 nM, 2nd day
  viability at 2 day, 3000 nM: 9%
[2]; 3,000 nM, 3rd day
  viability at 3 day, 3000 nM: 8%
[2]; 10,000 nM, 1st day
  viability at 1 day, 10000 nM: 32%
[2]; 10,000 nM, 2nd day
  viability at 2 day, 10000 nM: 4%
[2]; 10,000 nM, 3rd day
  viability at 3 day, 10000 nM: 4%
[2]; 30,000 nM, 1st day
  viability at 1 day, 30000 nM: 4%
[2]; 30,000 nM, 2nd day
  viability at 2 day, 30000 nM: 4%
[2]; 30,000 nM, 3rd day
  viability at 3 day, 30000 nM: 4%
T lymphocytes; 10 mg/kg peritoneally for five days
  Wt. (mg) of Lymphatic node: 1.12 mg
T lymphocytes; 30 mg/kg peritoneally for five days
  Wt. (mg) of Lymphatic node: 0.98 mg
T lymphocytes; peritoneal injection for five days
  immune response of T lymphocytes in graft versus host reaction: potentially suppress
[3]; [6]
  Proliferation (%) CD4 T cell: 31%
[3]; 10 nM, third day
  Proliferation (%) CD4 T cell: 31%
[3]; 30 nM, third day
  Proliferation (%) CD4 T cell: 31%
[3]; 100 nM, third day
  Proliferation (%) CD4 T cell: 29%
B and T lymphocytes [4]; 3 nM, antibody production, fifth day after sheep red blood cells, relative to untreated lymphocytes
  Immune Response (%) B/T cells: 81%
B and T lymphocytes [4]; 10 nM, fifth day
  Immune Response (%) B/T cells: 74%
B and T lymphocytes [4]; 30 nM, fifth day
  Immune Response (%) B/T cells: 64%
B and T lymphocytes [4]; 100 nM, fifth day
  Immune Response (%) B/T cells: 34%
B and T lymphocytes [5]; 3 nM, 5 μg/ml Pokeweed mitogen, relative to non-treated group
  Proliferation (%) B/T cells: 100%
B and T lymphocytes [5]; 10 nM, Pokeweed mitogen
  Proliferation (%) B/T cells: 86%
B and T lymphocytes [5]; 30 nM, Pokeweed mitogen
  Proliferation (%) B/T cells: 55%
B and T lymphocytes [5]; 100 nM, Pokeweed mitogen
  Proliferation (%) B/T cells: 17%
B and T lymphocytes [5]; 30–100 nM
  suppression of proliferation of B/T lymphocytes induced by pokeweed mitogen: 45–83%
